“Also recorded” adds a separate entry of the source.
Assays:
Type in all cases: cell-based
[1] = molecular target: T1, OR2L8 (Homo sapiens, UniProt Q8NGY9); assay: Ca-imaging of OR2L8-transfected HEK293 cells; parameters: key to OR2L8 responded to odorant: ▪: 18 olfactory receptors responded to 32 odorants in related with specific anosmia
T1 construct: specific primers, which amplify the complete open reading frame; expressed in transfected cells; host or cells: HEK293
T1 sequence (Q8NGY9 1-312): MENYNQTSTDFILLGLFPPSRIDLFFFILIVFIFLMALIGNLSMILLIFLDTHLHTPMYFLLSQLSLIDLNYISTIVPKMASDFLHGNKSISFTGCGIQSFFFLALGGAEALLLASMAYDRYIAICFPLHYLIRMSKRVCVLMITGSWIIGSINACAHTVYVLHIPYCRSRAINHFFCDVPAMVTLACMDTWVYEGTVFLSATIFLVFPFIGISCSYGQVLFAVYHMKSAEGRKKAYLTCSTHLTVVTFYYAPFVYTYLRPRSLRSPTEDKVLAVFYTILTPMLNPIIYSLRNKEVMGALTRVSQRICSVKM
Protocol: (§1) HEK293 cells were cultivated in Petri dishes (Ø35 mm) as previously described (Benbernou et al. 2007). We grow up HEK293 cells in culture medium containing standard DMEM with 10% heat-inactivated fetal bovine serum, 2 mM L-glutamine, 100 units/ml penicillin, and 100 units/ml streptomycin in a humidified atmosphere (37° C., 5% CO2). After 2-3 days, the transfection process was carried out, whereby the cell culture was 70-80% confluent. The calciumphosphate method was applied to transfect DNA plasmid transiently in HEK293 cells in case of Ca-imaging method.
(§2) Calcium cations and phosphate anions created crystal precipitations coupled with DNA which could invade into the cells through endocytosis. Cells were transiently transfected with plasmid DNA which consists of pCI expression vector and PCR-amplified full-length cDNA of olfactory receptors candidates, and also Gα15, RTP1, Myr-Ric8A, HSC70, and m-Cherry as cofactors. The precipitation could be created after 15-20 min, with dropping the transfection solution on HEK293 cells. Before measuring by Ca-imaging cells were incubated 48-60 hours at 370 C, 5% CO2. Cationic liposome-mediated transfection method was applied to transfect DNA plasmid transiently in HANA3A cells in case of CRE-Luciferase and CRE-SEAP assays.
(§3) Calcium imaging of the transfected HEK293 cells was done by using chambers determinate an inverted microscope (Olympus; IX70) using a 10× objective (CPIanFL N Olympus). Fluorescence emission was determined every 4 s by using a CCD camera (Charge Coupled Device, C9100 Hamamatsu). The capillary tube which was responsible to supply odorants was generated closely above the cells. The columns filled with odorants, DMSO and ATP. Odorants were manually monitored to drop each 4-5 s to transfected cells. Solutions with drop wise form spread on HEK293 cells in 35 mm dishes.
(§4) In experiments, Fura-2 Acetoxymethylester (Fura-2/AM) was applied. The non-polar Fura2/AM is fluorescent but not yet calcium-sensitive. Once diffuses into cell plasma, Fura-2/AM is hydrolyzed to Fura-2 which is calcium-sensitive and functions as Ca2+ chelator. Regardless of the presence of calcium, Fura-2 emits at the wavelength of 510 nm. Once Fura-2 binds to free intracellular Ca2+ in cell plasma, its ratio of excitation at wavelengths of 340 nm and 380 nm is changed and correlated to the amount of intracellular Ca2+. According to this feature, the analysis of 340/380 nm excitation ratio for Fura-2 allows to quantify intracellular calcium levels.
(§5) In preparation for Ca-imaging measurements, transfected HEK293 cells were added 3 it Fura2/AM (3 μM) and incubated 30-45 min at 370 C, 5% CO2. After this step, experiments were carried out in a dark condition (Fura-2 is light-sensitive). After the incubation, medium of cell culture was replaced with 2 ml Ringer's solution.
(§6) Odorants were freshly prepared with DMSO as 1 M stocks solutions. Six mixtures (200 μM each chemical) were applied to cells sequentially (20 s each mixture/30 s Ringer). Those ORs tested with single odorants that had generated a response to odorant mixture group previously. Odorants were prepared in 100-200 μM concentration.
(§7) Ringer's solution was used for washing cells between measuring by two different odorants. Positive response was determined by the timing of the response, the strength of the response (more than twofold higher than the noise amplitude of the baseline), and the shape of the response curve (sharp rise in curve with gradual recovery). The typical shape of response curves was established by observing responses to repeated stimulation with 200 μM of odorants. After testing with single odorants at 100 μM, stimulating odorants were often retested at 200 μM concentrations. To confirm the result of every receptor that produced a significant response curves, the experiment was repeated for twelve times. Finally, cells were exposed to ATP (0.25 mM) which could activate P2Y receptor channel and induce Ca2+ influx into cells. […]

[2] = molecular target: T2, OR4K5 (Homo sapiens, UniProt Q8NGD3); assay: Ca-imaging of OR4K5-transfected HEK293 cells; parameters: key to OR4K5 responded to odorant: ▪: 18 olfactory receptors responded to 32 odorants in related with specific anosmia
T2 construct: specific primers, which amplify the complete open reading frame; expressed in transfected cells; host or cells: HEK293
T2 sequence (Q8NGD3 1-323): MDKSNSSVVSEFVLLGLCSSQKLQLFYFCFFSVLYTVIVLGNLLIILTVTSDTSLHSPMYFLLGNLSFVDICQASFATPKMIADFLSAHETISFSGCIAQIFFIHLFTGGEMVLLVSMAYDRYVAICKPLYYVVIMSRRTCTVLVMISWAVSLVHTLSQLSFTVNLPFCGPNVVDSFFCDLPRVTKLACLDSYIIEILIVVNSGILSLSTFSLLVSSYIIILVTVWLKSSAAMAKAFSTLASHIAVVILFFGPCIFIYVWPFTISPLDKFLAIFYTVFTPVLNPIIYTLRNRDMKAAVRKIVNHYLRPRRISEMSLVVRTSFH
Protocol: as §1
Calcium cations and phosphate anions created crystal precipitations coupled with DNA which could invade into the cells through endocytosis. Cells were transiently transfected with plasmid DNA which consists of pCI expression vector and PCR-amplified full-length cDNA of olfactory receptors candidates, and also Gα15, RTP1, Myr-Ric8A, HSC70, and m-Cherry as cofactors. The precipitation could be created after 15-20 min, with dropping the transfection solution on HEK293 cells. Before measuring by Ca-imaging cells were incubated 48-60 hours at 370 C, 5% CO2. […]
Calcium imaging of the transfected HEK293 cells was done by using chambers determinate an inverted microscope (Olympus; IX70) using a 10× objective (CPIanFL N Olympus). Fluorescence emission was determined every 4 s by using a CCD camera (Charge Coupled Device, C9100 Hamamatsu). […] Odorants were manually monitored to drop each 4-5 s to transfected cells. […]
In experiments, Fura-2 Acetoxymethylester (Fura-2/AM) was applied. […] According to this feature, the analysis of 340/380 nm excitation ratio for Fura-2 allows to quantify intracellular calcium levels. […]
Ringer's solution was used for washing cells between measuring by two different odorants. Positive response was determined by the timing of the response, the strength of the response (more than twofold higher than the noise amplitude of the baseline), and the shape of the response curve (sharp rise in curve with gradual recovery). […]

[3] = system: HEK293 cells transfected with all cofactors and pCI plasmids without ORs; assay: Ca-imaging of control HEK293 cells without OR; conditions: odorant 200 μM, three times of measuring (Table 4, FIG. 5)
Protocol: as §1, §2, §3, §4, §5, §6, §7

[4] = molecular target: T1, OR2L8; assay: CRE-luciferase assay, OR2L8 in HANA3A cells; conditions: 50 μM, 100 μM and 150 μM; normalized to DMSO
Protocol: as §2, with “assays. […]” for “assays.”
ORs responded by Ca-imaging with seven separate odorant mixtures formed from 66 odorants. […] Transfected HANA3A cells on poly-D-lysine-coated 96 well plates are ready for stimulation after 24 h. […] Measuring by plate reader (Luminometer). • 6. […] Measuring by plate reader (Luminometer). • 8. According to manufacturer's protocols for measuring luciferase and renilla activities, calculate normalized luciferase activity with using the formula (Ln-Lmin)/(Lmax-Lmin), where Ln is the luminescence of firefly in response to the odorant, L min is the minimum luciferase value on a plate, and L max is the maximum luciferase value on plate. […]

## Ysamber K [Yasamber K]
[1]; Ca-imaging, HEK293 cells, individual odorant 200 μM, significant response p<0.05
  OR2L8 responded to odorant: ▪
[1]; Ca-imaging, single odorants 200 μM
  Response of OR2L8 to odorant, in words: Ca2+ concentration increased; also recorded: detected
[1]; odorant 200 μM, approximately 2000 transfected cells in three times of measuring (Table 4, FIG. 5)
  Number of cell responses, Experiment (OR2L8): 10
[2]; HEK293 cells, individual odorant 200 μM, significant response p<0.05
  OR4K5 responded to odorant: ▪
[2]; single odorants 200 μM
  Response of OR4K5 to odorant, in words: detected
[3]
  Number of cell responses, Control: 2
[4]
  CRE-luciferase (cAMP assay) response of OR2L8: weak response

Source: patent US9939427B2, “Method for evaluating the scent performance of perfumes or perfume mixtures” (Symrise AG, priority 2013, dated 2018)
